Laboratory results reported in the supplement of paper PMC10307832.

Tests used:
Experiment in all cases: relative viability (nuclei count vs DMSO), 5 days (fraction); higher = more cells survive
NCI-H1915 = system: NCI-H1915
Outline: (§1)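 Relative viability equals treated-well nuclei counts divided by vehicle-well nuclei counts. Counts came from 4× images of lung cancer cell lines grown in 1536-well plates for 5 days after pin-tool dosing on the day after seeding. Dosing used one drug alone or a fixed anchor-drug dose plus five library-drug doses (not always all listed) in √10 steps, and values are medians of duplicate plates.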

RERF-LC-KJ = system: RERF-LC-KJ
Outline: as §1

LC-2-ad = system: LC-2-ad
Outline: as §1

SW 1573 = system: SW 1573
Outline: as §1

NCI-H1355 = system: NCI-H1355
Outline: as §1

NCI-H2228 = system: NCI-H2228
Outline: as §1

A-427 = system: A-427
Outline: as §1

LCLC-97TM1 = system: LCLC-97TM1
Outline: as §1

LOU-NH91 = system: LOU-NH91
Outline: as §1

NCI-H650 = system: NCI-H650
Outline: as §1

LU99A = system: LU99A
Outline: as §1

NCI-H520 = system: NCI-H520
Outline: as §1

NCI-H460 = system: NCI-H460
Outline: as §1

NCI-H838 = system: NCI-H838
Outline: as §1

NCI-H1993 = system: NCI-H1993
Outline: as §1

EKVX = system: EKVX
Outline: as §1

NCI-H1793 = system: NCI-H1793
Outline: as §1

NCI-H23 = system: NCI-H23
Outline: as §1

NCI-H1666 = system: NCI-H1666
Outline: as §1

NCI-H2347 = system: NCI-H2347
Outline: as §1

PC-3 [JPC-3] = system: PC-3 [JPC-3]
Outline: as §1

BEN = system: BEN
Outline: as §1

NCI-H1650 = system: NCI-H1650
Outline: as §1

`O=C(O)CCCCC(CCSCc1ccccc1)SCc1ccccc1` (stereo not given) [CPI-613] + CCNC(=O)c1noc(-c2cc(C(C)C)c(O)cc2O)c1-c1ccc(CN2CCOCC2)cc1 [Luminespib] (partner 0.01 µM) was tested, and the relative viability (NCI-H1915; first compound 5 µM) was 0.746, the relative viability (NCI-H1915; first compound 15.81 µM) was 0.841 and the relative viability (NCI-H1915; first compound 50 µM) was 0.675. It also gave a relative viability (NCI-H1915; first compound 158.11 µM) of 0.161, a relative viability (NCI-H1915; first compound 500 µM) of 0.0405 and a relative viability (RERF-LC-KJ; first compound 5 µM) of 1.28. It also gave a relative viability (RERF-LC-KJ; first compound 15.81 µM) of 1.22, a relative viability (RERF-LC-KJ; first compound 50 µM) of 1.23 and a relative viability (RERF-LC-KJ; first compound 158.11 µM) of 0.235. The relative viability (RERF-LC-KJ; first compound 500 µM) was 0.198, the relative viability (LC-2-ad; first compound 5 µM) was 1.02 and the relative viability (LC-2-ad; first compound 15.81 µM) was 0.958. The relative viability (LC-2-ad; first compound 50 µM) was 0.847, the relative viability (LC-2-ad; first compound 158.11 µM) was 0.235 and the relative viability (LC-2-ad; first compound 500 µM) was 0.0688. The relative viability (SW 1573; first compound 5 µM) was 0.254, the relative viability (SW 1573; first compound 15.81 µM) was 0.295 and the relative viability (SW 1573; first compound 50 µM) was 0.138. For the same compound, the relative viability (SW 1573; first compound 158.11 µM) was 0.0967, the relative viability (SW 1573; first compound 500 µM) was 0.0725 and the relative viability (NCI-H1355; first compound 5 µM) was 0.692. It also gave a relative viability (NCI-H1355; first compound 15.81 µM) of 0.701, a relative viability (NCI-H1355; first compound 50 µM) of 0.691 and a relative viability (NCI-H1355; first compound 158.11 µM) of 0.25. The relative viability (NCI-H1355; first compound 500 µM) was 0.35, the relative viability (NCI-H2228; first compound 5 µM) was 0.145 and the relative viability (NCI-H2228; first compound 15.81 µM) was 0.205. The relative viability (NCI-H2228; first compound 50 µM) was 0.137, the relative viability (NCI-H2228; first compound 158.11 µM) was 0.141 and the relative viability (NCI-H2228; first compound 500 µM) was 0.0612. For the same compound, the relative viability (A-427; first compound 5 µM) was 0.85, the relative viability (A-427; first compound 15.81 µM) was 0.938 and the relative viability (A-427; first compound 50 µM) was 0.761. It also gave a relative viability (A-427; first compound 158.11 µM) of 0.512, a relative viability (A-427; first compound 500 µM) of 0.126 and a relative viability (LCLC-97TM1; first compound 5 µM) of 0.641. It also gave a relative viability (LCLC-97TM1; first compound 15.81 µM) of 0.71, a relative viability (LCLC-97TM1; first compound 50 µM) of 0.737 and a relative viability (LCLC-97TM1; first compound 158.11 µM) of 0.188. For the same compound, the relative viability (LCLC-97TM1; first compound 500 µM) was 0.0176, the relative viability (LOU-NH91; first compound 5 µM) was 0.344 and the relative viability (LOU-NH91; first compound 15.81 µM) was 0.325. The relative viability (LOU-NH91; first compound 50 µM) was 0.323, the relative viability (LOU-NH91; first compound 158.11 µM) was 0.309 and the relative viability (LOU-NH91; first compound 500 µM) was 0.34. It also gave a relative viability (NCI-H650; first compound 5 µM) of 0.811, a relative viability (NCI-H650; first compound 15.81 µM) of 0.732 and a relative viability (NCI-H650; first compound 50 µM) of 0.852. The relative viability (NCI-H650; first compound 158.11 µM) was 0.69, the relative viability (NCI-H650; first compound 500 µM) was 0.613 and the relative viability (LU99A; first compound 5 µM) was 0.296. It also gave a relative viability (LU99A; first compound 15.81 µM) of 0.222, a relative viability (LU99A; first compound 50 µM) of 0.243 and a relative viability (LU99A; first compound 158.11 µM) of 0.159. For the same compound, the relative viability (LU99A; first compound 500 µM) was 0.115, the relative viability (NCI-H520; first compound 5 µM) was 0.196 and the relative viability (NCI-H520; first compound 15.81 µM) was 0.204. It also gave a relative viability (NCI-H520; first compound 50 µM) of 0.214, a relative viability (NCI-H520; first compound 158.11 µM) of 0.197 and a relative viability (NCI-H520; first compound 500 µM) of 0.181. It also gave a relative viability (NCI-H460; first compound 5 µM) of 0.0325, a relative viability (NCI-H460; first compound 15.81 µM) of 0.0279 and a relative viability (NCI-H460; first compound 50 µM) of 0.0372. It also gave a relative viability (NCI-H460; first compound 158.11 µM) of 0.0145, a relative viability (NCI-H460; first compound 500 µM) of 0.0162 and a relative viability (NCI-H838; first compound 5 µM) of 0.249. The relative viability (NCI-H838; first compound 15.81 µM) was 0.243, the relative viability (NCI-H838; first compound 50 µM) was 0.24 and the relative viability (NCI-H838; first compound 158.11 µM) was 0.122. For the same compound, the relative viability (NCI-H838; first compound 500 µM) was 0.0891, the relative viability (NCI-H1993; first compound 5 µM) was 0.799 and the relative viability (NCI-H1993; first compound 15.81 µM) was 0.296. It also gave a relative viability (NCI-H1993; first compound 50 µM) of 0.917, a relative viability (NCI-H1993; first compound 158.11 µM) of 0.611 and a relative viability (NCI-H1993; first compound 500 µM) of 0.437. For the same compound, the relative viability (EKVX; first compound 5 µM) was 0.834, the relative viability (EKVX; first compound 15.81 µM) was 0.881 and the relative viability (EKVX; first compound 50 µM) was 0.864. For the same compound, the relative viability (EKVX; first compound 158.11 µM) was 0.814, the relative viability (EKVX; first compound 500 µM) was 0.803 and the relative viability (NCI-H1793; first compound 5 µM) was 0.252. The relative viability (NCI-H1793; first compound 15.81 µM) was 0.372, the relative viability (NCI-H1793; first compound 50 µM) was 0.175 and the relative viability (NCI-H1793; first compound 158.11 µM) was 0.131. The relative viability (NCI-H1793; first compound 500 µM) was 0.0028, the relative viability (NCI-H23; first compound 5 µM) was 0.224 and the relative viability (NCI-H23; first compound 15.81 µM) was 0.222. The relative viability (NCI-H23; first compound 50 µM) was 0.234, the relative viability (NCI-H23; first compound 158.11 µM) was 0.129 and the relative viability (NCI-H23; first compound 500 µM) was 0.0632. For the same compound, the relative viability (NCI-H1666; first compound 5 µM) was 0.992, the relative viability (NCI-H1666; first compound 15.81 µM) was 1.01 and the relative viability (NCI-H1666; first compound 50 µM) was 1.12. For the same compound, the relative viability (NCI-H1666; first compound 158.11 µM) was 0.223, the relative viability (NCI-H1666; first compound 500 µM) was 0.131 and the relative viability (NCI-H2347; first compound 5 µM) was 0.279. It also gave a relative viability (NCI-H2347; first compound 15.81 µM) of 0.344, a relative viability (NCI-H2347; first compound 50 µM) of 0.746 and a relative viability (NCI-H2347; first compound 158.11 µM) of 0.548. For the same compound, the relative viability (NCI-H2347; first compound 500 µM) was 0.833, the relative viability (PC-3 [JPC-3]; first compound 5 µM) was 0.594 and the relative viability (PC-3 [JPC-3]; first compound 15.81 µM) was 0.578. For the same compound, the relative viability (PC-3 [JPC-3]; first compound 50 µM) was 0.627, the relative viability (PC-3 [JPC-3]; first compound 158.11 µM) was 0.563 and the relative viability (PC-3 [JPC-3]; first compound 500 µM) was 0.48. It also gave a relative viability (BEN; first compound 5 µM) of 0.619, a relative viability (BEN; first compound 15.81 µM) of 0.362 and a relative viability (BEN; first compound 50 µM) of 0.484. For the same compound, the relative viability (BEN; first compound 158.11 µM) was 0.292, the relative viability (BEN; first compound 500 µM) was 0.149 and the relative viability (NCI-H1650; first compound 5 µM) was 0.213. For the same compound, the relative viability (NCI-H1650; first compound 15.81 µM) was 0.224, the relative viability (NCI-H1650; first compound 50 µM) was 0.194 and the relative viability (NCI-H1650; first compound 158.11 µM) was 0.168. The relative viability (NCI-H1650; first compound 500 µM) was 0.0166.
